These results are taken from DBAASP.

Common to all, as to assay: ≥ marks a high value that may be exact or a test limit, other limits are often not marked, values filed in µg/mL are converted to µM
In test [1] the test system is Escherichia coli ATCC 25922.
Test [2] relates to Pseudomonas aeruginosa ATCC 27853.
The test system of test [3] is Staphylococcus aureus ATCC 29313.
Test [4] concerns Xanthomonas axonopodis pv. citri.
Test [5] deals with Acinetobacter baumannii ATCC 19606.
Test [6] relates to Acinetobacter junii RT-4.
Test [7] deals with Bacillus megaterium Bm11.
The test system of test [8] is Candida albicans ATCC 10231.
The subject of test [9] is Enterococcus faecalis ATCC 29212.
Test [10] has as its system Escherichia coli D21.
Test [11] has as its system Pseudomonas aeruginosa ATCC 15692.
Test [12] concerns Pseudomonas syringae pv. tabaci 1918NCPPB.
The test system of test [13] is Saccharomyces cerevisiae.
For test [14], the system named is Schizosaccharomyces pombe.
Test [15] concerns Staphylococcus aureus ATCC 25923.
The test system of test [16] is Staphylococcus aureus Cowan 1.
Test [17] concerns Staphylococcus capitis 1.
Test [18] has as its system Staphylococcus epidermidis ATCC 12228.
Test [19] deals with Streptococcus pyogenes ATCC 21547.
Test [20] concerns Yersinia pseudotuberculosis YPIII.
In test [21] the test system is Bacillus subtilis IFO 3513.
The test system of test [22] is Escherichia coli IFO 12734.
Test [23] has as its system Staphylococcus aureus IFO 12732.
Test [24] has as its system Corynebacterium xerosis.
Test [25] concerns Enterococcus faecalis.
Test [26] deals with Escherichia coli.
Test [27] has as its system Listeria monocytogenes NCTC 7973.
Test [28] has as its system Pseudomonas aeruginosa.
In test [29] the test system is Salmonella typhimurium.
The subject of test [30] is Staphylococcus aureus MR.
The subject of test [31] is Staphylococcus aureus SAP 0017.
Test [32] has as its system Staphylococcus aureus.
Test [33] has as its system Staphylococcus epidermidis.
Test [34] has as its system Staphylococcus haemolyticus.
For test [35], the system named is Streptococcus pyogenes ATCC 19615.
Test [36] deals with Aerococcus viridans.
Test [37] has as its system Aeromonas hydrophila.
The test system of test [38] is Bacillus subtilis.
In test [39] the test system is Escherichia coli 363.
Test [40] concerns Micrococcus luteus.
Test [41] relates to Vibrio anguillarum.
Test [42] concerns Vibrio harveyi CGMCC 1.1593.
Test [43] concerns Vibrio harveyi.
Test [44] relates to Candida albicans.
The subject of test [45] is Listeria monocytogenes.
The test system of test [46] is Neisseria gonorrhoeae F-62.
Test [47] concerns Neisseria gonorrhoeae FA-19.

Converted amounts (≈) assume the structure as drawn. “And” between values parts separate entries of the source, which are not always exact repeats. Identical values can stand only once.

Take `CC(C)C[C@H](NC(=O)[C@H](C)NC(=O)[C@@H](NC(=O)[C@@H](N)CCCCN)C(C)C)C(=O)NCC(=O)N[C@H](C(=O)N[C@@H](C)C(=O)N[C@@H](CCC(N)=O)C(=O)N[C@@H](CC(N)=O)C(=O)N[C@@H](Cc1ccc(O)cc1)C(=O)N[C@@H](CC(C)C)C(=O)N[C@@H](CC(N)=O)C(=O)N1CCC[C@H]1C(=O)N[C@@H](CCC(N)=O)C(=O)N[C@@H](CCC(N)=O)C(=O)O)C(C)C` [KVALGVAQNYLNPQQ]: the MIC (as a rule, the lowest concentration found to suppress growth) in [1] was > 156 µM; in [2] it was > 156 µM; in test [3] it was ≥ 156 µM; in [4] it was ≥ 156 µM.
On to `CC[C@H](C)[C@H](NC(=O)[C@H](CCCN=C(N)N)NC(=O)CNC(=O)[C@H](CC(C)C)NC(=O)[C@H](Cc1ccccc1)NC(=O)[C@H](CCCCN)NC(=O)[C@H](CO)NC(=O)[C@H](Cc1ccccc1)NC(=O)[C@H](Cc1c[nH]c2ccccc12)NC(=O)[C@@H]1CCCN1C(=O)[C@H](CC(C)C)NC(=O)[C@@H](N)Cc1ccccc1)C(=O)N[C@@H](CC(C)C)C(N)=O` [FLPWFSKFLGRIL], for which the MIC in test [5] was determined as 12 µM (≈ 19.5 µg/mL); in test [6], 12 µM (≈ 19.5 µg/mL); in test [7], 3 µM (≈ 4.87 µg/mL); in test [8], 12 µM (≈ 19.5 µg/mL); in test [9], 12 µM (≈ 19.5 µg/mL); in [1], 12 µM (≈ 19.5 µg/mL). In addition, the MIC in test [10] was 24 µM (≈ 39 µg/mL); in test [11], ≥ 48 µM; in [12] it was 12 µM (≈ 19.5 µg/mL); in test [13] it was 12 µM (≈ 19.5 µg/mL); in [14], 6 µM (≈ 9.74 µg/mL); in test [15], 3 µM (≈ 4.87 µg/mL). Moreover, the MIC was determined as 3 µM (≈ 4.87 µg/mL) in test [16]; 3 µM (≈ 4.87 µg/mL) in test [17]; 3 µM (≈ 4.87 µg/mL) in test [18]; 6 µM (≈ 9.74 µg/mL) in test [19]; 6 µM (≈ 9.74 µg/mL) in test [20].
In the case of `CC[C@H](C)[C@H](NC(=O)[C@H](CC(C)C)NC(=O)[C@@H]1CCCN1C(=O)[C@H](CCCCN)NC(=O)[C@H](CCCCN)NC(=O)[C@H](Cc1c[nH]c2ccccc12)NC(=O)[C@@H]1CCCN1C(=O)[C@H](CCCCN)NC(=O)[C@H](CC(C)C)NC(=O)[C@@H]1CCCN1C(=O)[C@H](Cc1c[nH]c2ccccc12)NC(=O)[C@H](CCCN=C(N)N)NC(=O)[C@@H](N)CCCN=C(N)N)C(N)=O` [RRWPLKPWKKPLI], the MIC amounted to 3.64 µM (≈ 6.25 µg/mL) in test [21], 29.1 µM (≈ 50 µg/mL) in [22] and 3.64 µM (≈ 6.25 µg/mL) in [23].
On to `CC[C@H](C)[C@H](N)C(=O)N[C@@H](CC(C)C)C(=O)N[C@@H](CCCCN)C(=O)N[C@@H](CCCCN)C(=O)N[C@@H](Cc1c[nH]c2ccccc12)C(=O)N1CCC[C@H]1C(=O)N[C@@H](Cc1c[nH]c2ccccc12)C(=O)N[C@@H](Cc1c[nH]c2ccccc12)C(=O)N1CCC[C@H]1C(=O)N[C@@H](Cc1c[nH]c2ccccc12)C(=O)N[C@@H](CCCN=C(N)N)C(=O)N[C@@H](CCCN=C(N)N)C(=O)N[C@@H](CCCCN)C(N)=O` [ILKKWPWWPWRRK], for which the MIC is 0.266 µM (≈ 0.5 µg/mL) in test [24]; > 34 µM in test [9]; ≥ 34 µM in [25]; 2.13 µM and 4.25 µM in test [26]; 8.51 µM (≈ 16 µg/mL) in [27]; 8.51 µM (≈ 16 µg/mL) in test [28]. Besides, the MIC in test [29] is ≥ 34 µM; in test [15] it was 8.51 µM (≈ 16 µg/mL); in [30], 8.51 µM (≈ 16 µg/mL); in test [31], 8.51 µM (≈ 16 µg/mL); in [32], 8.51 µM (≈ 16 µg/mL); in test [33] it was 4.25 µM and 2.13 µM. Besides, the MIC is 1.06 µM and 0.532 µM in test [34]; 4.25 µM (≈ 8 µg/mL) in test [35].
In the case of `CC[C@H](C)[C@@H]1NC(=O)[C@@H]2CSSC[C@H](NC(=O)[C@@H]3CCCN3C(=O)[C@H](CO)NC(=O)[C@H](CCCN=C(N)N)NC1=O)C(=O)N1CCC[C@H]1C(=O)N[C@H](C(=O)N[C@@H](C)C(=O)N[C@@H](CC(N)=O)C(=O)N[C@@H](Cc1ccc(O)cc1)C(=O)NCC(=O)O)CSSC[C@H](NC(=O)CNC(=O)[C@@H]1CCCN1C(=O)[C@H](CCCN=C(N)N)NC(=O)CNC(=O)CNC(=O)[C@H](Cc1ccccc1)NC(=O)[C@H](CCC(N)=O)NC(=O)CNC(=O)CNC(=O)[C@@H](NC(=O)[C@H](Cc1ccccc1)NC(=O)[C@@H]1CCCN1C(=O)[C@H](CCCN=C(N)N)NC(=O)CNC(=O)CNC(=O)[C@H](Cc1ccccc1)NC(=O)[C@@H]1CCCN1C(=O)[C@H](CCCN=C(N)N)NC(=O)CNC(=O)[C@H](Cc1ccc(O)cc1)NC(=O)[C@H](CCCN=C(N)N)NC(=O)[C@H](CCCN=C(N)N)NC(=O)[C@H](CO)NC(=O)[C@@H](NC(=O)[C@H](CCCN=C(N)N)NC(=O)[C@@H]1CCCN1C(=O)[C@@H](N)CO)C(C)C)C(C)C)C(=O)N[C@@H](C(C)C)C(=O)N2` [SPRVSRRYGRPFGGRPFVGGQFGGRPGCVCIRSPCPCANYG], the MIC in [36] was 0.39 µM (≈ 1.7 µg/mL); in [37] it was ≥ 50 µM; in [38], 12.5 µM and 10.1 µM; in test [39], ≥ 50 µM; in [40], 0.78 µM (≈ 3.41 µg/mL); in test [34] it was 12.5 µM (≈ 54.6 µg/mL). Moreover, the MIC in test [41] is 6.25 µM (≈ 27.3 µg/mL); in test [42] it was 5.06 µM (≈ 22.1 µg/mL); in test [43], 1.56 µM (≈ 6.82 µg/mL).
Turning to `CC[C@H](C)[C@@H]1NC(=O)[C@H](Cc2c[nH]c3ccccc23)NC(=O)CNC(=O)[C@H](CCCN=C(N)N)NC(=O)[C@@H]2CSSC[C@H](NC1=O)C(=O)N[C@@H](Cc1ccccc1)C(=O)N[C@H](C(=O)N[C@H](C(=O)NCC(=O)N[C@@H](CCCN=C(N)N)C(=O)O)C(C)C)CSSC[C@H](NC(=O)[C@H](CC(C)C)NC(=O)[C@H](CCCN=C(N)N)NC(=O)CNC(=O)CNC(=O)[C@@H](N)CCCN=C(N)N)C(=O)N[C@@H](Cc1ccc(O)cc1)C(=O)N2` [RGGRLCYCRGWICFCVGR], the MIC amounted to 14.4 µM (≈ 30.3 µg/mL) in [44]; 0.997 µM (≈ 2.1 µg/mL) in test [26]; 0.902 µM (≈ 1.9 µg/mL) in test [45]; 0.57 µM (≈ 1.2 µg/mL) in test [46]; 1.66 µM (≈ 3.49 µg/mL) in [47].
